Laboratory results as given in US12521439B2, “Methods and materials for modulating Nrf2 pathway” (The General Hospital Corporation, priority 2019, dated 2026).

What was measured:
[1] = tested on: cancer cells; assay: Cancer cell death with OBT, JQ1, OBT-JQ1; assay type: cell-based; details: OBT combined with JQ1, FIG. 22
Description: Cell viability: Cells were plated in 96-well plates and treated with the corresponding compounds. Cell viability was measured by adding 25 μl/well of CellTiter-Glo (Promega) followed by 10 minutes incubation and transfer to a white 96-well plate. Bioluminescence was quantified using Synergy HTX multimode reader (Biotek).

[2] = molecular target: T1, bovine catalase (Bos taurus, UniProt P00432); assay: Differential alkylation mass spectrometry, catalase; assay type: binding
T1 construct: purchased Sigma-Aldrich
T1 sequence (P00432 1-527): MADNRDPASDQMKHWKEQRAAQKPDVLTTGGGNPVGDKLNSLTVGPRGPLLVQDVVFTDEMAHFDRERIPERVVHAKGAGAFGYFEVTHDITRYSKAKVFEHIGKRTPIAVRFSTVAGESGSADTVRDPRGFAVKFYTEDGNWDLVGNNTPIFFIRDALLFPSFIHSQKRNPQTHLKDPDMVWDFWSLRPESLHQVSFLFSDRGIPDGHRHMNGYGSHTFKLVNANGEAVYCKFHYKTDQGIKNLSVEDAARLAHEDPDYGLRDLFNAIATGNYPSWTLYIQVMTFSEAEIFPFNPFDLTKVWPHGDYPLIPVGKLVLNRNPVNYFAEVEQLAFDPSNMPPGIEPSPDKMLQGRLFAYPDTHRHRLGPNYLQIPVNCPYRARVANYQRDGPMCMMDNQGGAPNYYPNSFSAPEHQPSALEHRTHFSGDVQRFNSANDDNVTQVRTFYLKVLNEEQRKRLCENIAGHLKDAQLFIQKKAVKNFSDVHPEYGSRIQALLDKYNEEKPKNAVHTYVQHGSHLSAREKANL
Description: Differential Alkylation for OBT Binding Characterization: 10 μg of bovine catalase (Sigma-Aldrich) were suspended in 100 μl of 50 mM HEPES (pH 8.5)/0.5% SDS and OBT, iodoacetamide (IAA), or N-ethylmaleimide (NEM) was added to a final concentration of 5 mM and the mixtures were incubated for 30 min at RT in the dark before adding IAA to all three reactions to a final concentration of 10 mM in the sample treated with IAA in the first alkylation step, and of 5 mM in the other two samples. Upon incubation at RT for 30 min in the dark dithiothreitol (DTT) was added to all reaction to a final concentration of 20 mM and the reactions were first incubated at RT in the dark for 15 min and then at 56° C. for 30 min. Then, NEM was added to all reactions to a final concentration of 100 mM followed by incubation at RT in the dark for 30 min. The experiments were done in triplicate. Samples were analyzed by mass spectrometry as described below.
Quantitative Proteomics: Cell pellets were lysed in a buffer of 75 mM NaCl, 50 mM HEPES pH 8.5, 10 mM sodium pyrophosphate, 10 mM sodium fluoride, 10 mM β-glycerophosphate, 10 mM sodium orthovanadate, 10 mM PMSF, Roche complete mini EDTA free protease inhibitors (1 tablet per 20 ml), and 3% SDS. Lysis was achieved by passing the suspension through a 21-gauge needle 20 times. Proteins were prepared for proteomics analysis as described previously. […] Twelve fractions were analyzed by multiplexed quantitative proteomics performed on an Orbitrap Fusion mass spectrometer (Thermo Scientifc) using a Simultaneous Precursor Selection (SPS) based MS3 method. […] For the cell line samples only MS3 with an average signal-to-noise value of larger than 40 per reporter ion as well as with an isolation specificity of larger than 0.75 were considered for quantification. […] A two-step normalization of the protein TMT-intensities was performed by first normalizing the protein intensities over all acquired TMT channels for each protein based on the median average protein intensity calculated for all proteins. […]

[3] = 2-fold excess of DTT over alkylating reagents

binding type at Cys-232 and Cys-460 [2, 3]: tight or irreversible binding | binding type at Cys-377 [2, 3]: reversible binding
SMILES: COC1=CC(=O)C(O)=C/C1=C/C=C/c1ccccc1 [OBT, (Z)-2-hydroxy-5-methoxy-4-((E)-3-phenylallylidene)cyclohexa-2,5-dien-1-one]
interaction with JQ1 [1]: synergizes | binding to cysteine residues of bovine catalase ([2]; 5 mM OBT, differential alkylation): binds to all detected peptides with cysteine residues
